# In patent publication EP2492354A1, “Method for identifying compounds useful in the treatment of photosensitive reflex epilepsy” (Institut National De La Recherche Agronomique (INRA), priority 2011, dated 2012):
# Assays:
# Fepi = test: Intermittent Light Stimulation (ILS) induced seizures in the photosensitive reflex epileptic chicken model; type: in vivo
# Procedure: During 21 days, they were exposed to ILS (3 minutes) once a day.
# Behavioural activities were observed and time recorded for each phase of the paroxysmal manifestation during controlled intermittent light stimulation: • T0: ILS starts • T1 (time in seconds): neck myoclonus starts • T2 (time in seconds): convulsive phase starts • T3 (time in seconds): convulsive phase ends
# The first day they were tested for control and all had ILS induced seizures. […]
# During the last 10 days, none of the animals was treated.
# The influence of the treatment on the stimulus locked myoclonus and generalized convulsions of the photosensitive GRS was evaluated using generalized linear models implemented in the function glm of the software R, version 2.9.0. The number of seizures for each animal over a given phase of the experiment (with treatment and following treatment) was modeled using a binomial distribution, and linked to factors using the logit function. The delay for seizure initiation, the duration of the myoclonus and the duration of the convulsions were modeled using gamma distributions, and linked to the factors using the identity function. Sex was included as an additive co-factor in the analyses but not significant differences were found.
# [1] = cited from earlier work
# plasma proteins = conditions: cited from earlier work
structure (smiles),measurement,setting,value
CC[C@@H](C(N)=O)N1CCCC1=O [(S)-a-ethyl-2-oxo-1-pyrrolidine acetamide],anticonvulsant effect,Fepi; chicken model of the invention,has an anticonvulsant effect
same,persistence of the effect after the injection period,Fepi; last 10 days without treatment,the effect partially persisting few days after the injection period
same,seizure duration (on average),"Fepi; treated (50, 100 or 200 mg/Kg) homozygous, placebo 16.2 s, p-value 1 e-08",10.7 s
same,dose range over which the pharmacokinetics are linear,[1]; in vivo,500 to 5000 mg
same,time to peak plasma concentrations,[1]; oral administration to fasted subjects,one
same,decrease of Cmax by food,"[1]; oral, with food",20%
same,delay of Tmax by food,"[1]; oral, with food",1.5 h
same,oral bioavailability,[1]; tablets,100%
same,time to steady state,[1]; twice-daily dosing,2 days
same,bound to plasma proteins,plasma proteins,less than 10%
